Source: PubChem BioAssay AID248 (DTP/NCI, 2004)
Inconclusive results and toxic doses are left out. No stated cut-off is given here; in the data, active means T/C of 150% or more; inactive means T/C below 125%.

System: L1210 leukemia ip in BDF1 mice, survival T/C
Assay: NCI In Vivo Anticancer Drug Screen. Data for tumor model L1210 Leukemia (intraperitoneal) in B6D2F1 (BDF1) mice
Conditions: endpoint: mean survival time, higher = longer survival
Method in brief: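 Read-out is survival time, reported as the treated-group measurement over the vehicle-control measurement.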

[1] = dose: 50.0 mg/kg/injection, schedule: Q01DX001 (ip), vehicle: saline
[2] = dose: 100.0 mg/kg/injection, schedule: Q01DX001 (ip), vehicle: saline
[3] = dose: 200.0 mg/kg/injection, schedule: Q01DX001 (ip), vehicle: saline
[4] = dose: 400.0 mg/kg/injection, schedule: Q01DX001 (ip), vehicle: saline
[5] = dose: 25.0 mg/kg/injection, schedule: Q01DX009 (ip), vehicle: saline
[6] = dose: 50.0 mg/kg/injection, schedule: Q01DX009 (ip), vehicle: saline
[7] = dose: 100.0 mg/kg/injection, schedule: Q01DX009 (ip), vehicle: saline
[8] = dose: 200.0 mg/kg/injection, schedule: Q01DX009 (ip), vehicle: saline
[9] = dose: 400.0 mg/kg/injection, schedule: Q01DX009 (ip), vehicle: saline
[10] = dose: 50.0 mg/kg/injection, schedule: Q01DX009 (ip), vehicle: water
[11] = dose: 100.0 mg/kg/injection, schedule: Q01DX009 (ip), vehicle: water
[12] = dose: 100.0 mg/kg/injection, schedule: Q04DX003 (ip), vehicle: Klucel (hydroxypropylcellulose) (HPC)
[13] = dose: 200.0 mg/kg/injection, schedule: Q04DX003 (ip), vehicle: Klucel (hydroxypropylcellulose) (HPC)
[14] = dose: 400.0 mg/kg/injection, schedule: Q04DX003 (ip), vehicle: Klucel (hydroxypropylcellulose) (HPC)
[15] = dose: 100.0 mg/kg/injection, schedule: Q01DX001 (ip), vehicle: Klucel (hydroxypropylcellulose) (HPC)
[16] = dose: 200.0 mg/kg/injection, schedule: Q01DX001 (ip), vehicle: Klucel (hydroxypropylcellulose) (HPC)

Measured: T/C

O=[N+]([O-])c1ccc(N/N=C2/CCSc3ccccc32)cc1
inactive: dose: 100.0 mg/kg/injection, schedule: Q04DX003 (ip), vehicle: acetone 100 % of control | dose: 200.0 mg/kg/injection, schedule: Q04DX003 (ip), vehicle: acetone 99 % of control | dose: 400.0 mg/kg/injection, schedule: Q04DX003 (ip), vehicle: acetone 88 % of control

Cn1cc2c(=O)n(O)c(=O)[nH]c2n1
inactive: [1] 106 % of control | [2] 100 % of control | [3] 102 % of control | [4] 102 % of control

COc1cc2c(cc1OCc1ccccc1)C=CN(C(=O)c1ccccc1)C2C#N (stereo unspecified)
inactive: [5] 100 % of control | [6] 94 % of control | [7] 94 % of control | [8] 93 % of control | [9] 98 % of control

CC(C)(C)C1=CC(=O)C=CC1=O
inactive: [10] 93 % of control | dose: 100.0 mg/kg/injection, schedule: Q01DX001 (ip), vehicle: water 100 % of control | [11] 97 % of control | dose: 200.0 mg/kg/injection, schedule: Q01DX001 (ip), vehicle: water 102 % of control

CN(C)c1ccc(/C=C2\CCC/C(=C\c3ccc(N(C)C)cc3)C2=O)cc1
inactive: [12] 96 % of control | [13] 96 % of control | [14] 92 % of control

Cc1ccc(NC(=O)N2CC2(C)C)cc1NC(=O)N1CC1(C)C
inactive: [12] 121 % of control | [13] 116 % of control | dose: 265.0 mg/kg/injection, schedule: Q04DX003 (ip), vehicle: Klucel (hydroxypropylcellulose) (HPC) 120 % of control | [14] 111 % of control | dose: 600.0 mg/kg/injection, schedule: Q04DX003 (ip), vehicle: Klucel (hydroxypropylcellulose) (HPC) 94 % of control

COC(=O)CC(=O)C(Cl)C(=O)OC (stereo unspecified)
inactive: [6] 97 % of control | [7] 108 % of control

O=C(O)CCC(=O)Nc1ccccc1CC(c1c[nH]c2ccccc12)c1c[nH]c2ccccc12
inactive: [1] 106 % of control | [2] 104 % of control | [3] 106 % of control | [4] 104 % of control

CC(=O)Nc1ccc(S(=O)(=O)N=S(c2ccccc2)c2ccccc2)cc1
inactive: dose: 50.0 mg/kg/injection, schedule: Q01DX001 (ip), vehicle: carboxymethylcellulose (CMC) 101 % of control | dose: 100.0 mg/kg/injection, schedule: Q01DX001 (ip), vehicle: carboxymethylcellulose (CMC) 101 % of control | dose: 200.0 mg/kg/injection, schedule: Q01DX001 (ip), vehicle: carboxymethylcellulose (CMC) 94 % of control | dose: 400.0 mg/kg/injection, schedule: Q01DX001 (ip), vehicle: carboxymethylcellulose (CMC) 97 % of control

Cn1/c(=N/N)sc2ccccc21.Cn1/c(=N/N)sc2ccccc21.Cn1/c(=N/N)sc2ccccc21.Cn1/c(=N\N)sc2ccccc21.[Cl][Rh][Cl]
inactive: dose: 3.13 mg/kg/injection, schedule: Q04DX003 (ip), vehicle: distilled water + Tween-80 100 % of control | dose: 6.25 mg/kg/injection, schedule: Q04DX003 (ip), vehicle: distilled water + Tween-80 98 % of control | dose: 12.5 mg/kg/injection, schedule: Q04DX003 (ip), vehicle: distilled water + Tween-80 101 % of control | dose: 25.0 mg/kg/injection, schedule: Q04DX003 (ip), vehicle: distilled water + Tween-80 101 % of control | dose: 50.0 mg/kg/injection, schedule: Q04DX003 (ip), vehicle: distilled water + Tween-80 93 % of control | dose: 100.0 mg/kg/injection, schedule: Q04DX003 (ip), vehicle: distilled water + Tween-80 90 % of control | dose: 200.0 mg/kg/injection, schedule: Q04DX003 (ip), vehicle: distilled water + Tween-80 95 % of control

COc1ccc2ccc3ccc(OC)c(OC(C)=O)c3c2c1
inactive: dose: 100.0 mg/kg/injection, schedule: Q01DX001 (ip), vehicle: steriod suspending solution 94 % of control | dose: 200.0 mg/kg/injection, schedule: Q01DX001 (ip), vehicle: steriod suspending solution 105 % of control | dose: 400.0 mg/kg/injection, schedule: Q01DX001 (ip), vehicle: steriod suspending solution 108 % of control

CC(=O)/C=C/c1ccc([N+](=O)[O-])o1
inactive: [15] 116 % of control | [16] 121 % of control

CCC(=O)Nc1cccc(Cl)c1
inactive: dose: 100.0 mg/kg/injection, schedule: Q01DX009 (ip), vehicle: saline with Tween-80 97 % of control | [12] 97 % of control | dose: 200.0 mg/kg/injection, schedule: Q01DX009 (ip), vehicle: saline with Tween-80 103 % of control | [13] 97 % of control | [14] 108 % of control

CCOCCN=Cc1c[nH]c2ccccc12
inactive: [12] 98 % of control | [13] 95 % of control | [14] 98 % of control

CN(C)c1nc2c(N)ncnc2n1C1OC(CO)C(O)C1O (stereo unspecified)
inactive: dose: 6.25 mg/kg/injection, schedule: Q01DX009 (ip), vehicle: saline 100 % of control | dose: 12.5 mg/kg/injection, schedule: Q01DX005 (ip), vehicle: saline 95 % of control | dose: 12.5 mg/kg/injection, schedule: Q01DX009 (ip), vehicle: saline 96 % of control | dose: 25.0 mg/kg/injection, schedule: Q01DX005 (ip), vehicle: saline 101 % of control | [5] 110 % of control | dose: 50.0 mg/kg/injection, schedule: Q01DX005 (ip), vehicle: saline 108 % of control

Cc1ccc(NC(=O)OCCCl)cc1
inactive: [2] 117 % of control | [3] 112 % of control

Cc1ccc(-n2c(O)c(N=Nc3ccccc3C)c(=O)n(-c3ccc(I)cc3)c2=S)cc1
inactive: dose: 37.5 mg/kg/injection, schedule: Q01DX001 (ip), vehicle: Klucel (hydroxypropylcellulose) (HPC) 101 % of control | dose: 75.0 mg/kg/injection, schedule: Q01DX001 (ip), vehicle: Klucel (hydroxypropylcellulose) (HPC) 108 % of control | dose: 150.0 mg/kg/injection, schedule: Q01DX001 (ip), vehicle: Klucel (hydroxypropylcellulose) (HPC) 92 % of control

COc1ccc(C(=O)c2cccs2)cc1
inactive: dose: 50.0 mg/kg/injection, schedule: Q01DX009 (ip), vehicle: saline sonified 101 % of control | dose: 100.0 mg/kg/injection, schedule: Q01DX009 (ip), vehicle: saline sonified 104 % of control | [12] 97 % of control | dose: 200.0 mg/kg/injection, schedule: Q01DX009 (ip), vehicle: saline sonified 102 % of control | [13] 94 % of control

CN(C)c1ccc(/C=C\c2cc(=O)[nH]c3ccccc23)cc1
inactive: dose: 50.0 mg/kg/injection, schedule: Q01DX009 (ip), vehicle: Klucel (hydroxypropylcellulose) (HPC) 100 % of control | dose: 100.0 mg/kg/injection, schedule: Q01DX009 (ip), vehicle: Klucel (hydroxypropylcellulose) (HPC) 102 % of control | dose: 200.0 mg/kg/injection, schedule: Q01DX009 (ip), vehicle: Klucel (hydroxypropylcellulose) (HPC) 97 % of control | dose: 400.0 mg/kg/injection, schedule: Q01DX009 (ip), vehicle: Klucel (hydroxypropylcellulose) (HPC) 97 % of control

NC(C(=O)O)C(O)C(=O)O (stereo unspecified)
inactive: dose: 75.0 mg/kg/injection, schedule: Q04DX003 (ip), vehicle: saline 98 % of control | dose: 150.0 mg/kg/injection, schedule: Q04DX003 (ip), vehicle: saline 98 % of control | dose: 300.0 mg/kg/injection, schedule: Q04DX003 (ip), vehicle: saline 96 % of control

CS(=O)(=O)O/C=C1\C(=O)OC2CCCCC12 (stereo unspecified)
inactive: dose: 12.5 mg/kg/injection, schedule: Q01DX009 (ip), vehicle: water 111 % of control | dose: 25.0 mg/kg/injection, schedule: Q01DX009 (ip), vehicle: water 105 % of control | [10] 100 % of control | [11] 105 % of control | dose: 200.0 mg/kg/injection, schedule: Q01DX009 (ip), vehicle: water 106 % of control

COc1ccc(C2=C(C)CC3c4cc(OC)c(OC)cc4CCN3C2)cc1OC (stereo unspecified)
inactive: dose: 52.0 mg/kg/injection, schedule: Q01DX001 (ip), vehicle: carboxymethylcellulose (CMC) 101 % of control | dose: 78.0 mg/kg/injection, schedule: Q01DX001 (ip), vehicle: carboxymethylcellulose (CMC) 104 % of control | dose: 177.0 mg/kg/injection, schedule: Q01DX001 (ip), vehicle: carboxymethylcellulose (CMC) 118 % of control

O=S(=O)(O)c1cccc(S(=O)(=O)O)c1
inactive: [7] 105 % of control | [8] 103 % of control | [9] 97 % of control

Cc1cc(C(c2ccccc2)c2ccccc2)cc(C)c1O
inactive: [15] 98 % of control | [16] 93 % of control | dose: 400.0 mg/kg/injection, schedule: Q01DX001 (ip), vehicle: Klucel (hydroxypropylcellulose) (HPC) 92 % of control
